Consider 19 compounds from patent publication US20230295131A1, “INHIBITORS OF RHO-ASSOCIATED COILED-COIL KINASE” (Angion Biomedica Corp., priority 2020, published 2023).

For one assay, the target named is T1, ROCK1 (Homo sapiens, UniProt Q13464).
T1 construct: T7 phage fusion (kinase-tagged phage) or DNA tag for qPCR detection
Description: ROCK1 kinase binding affinity, DiscoverX KINOMEscan KdELECT. To be noted: 11-point 3-fold dilution. An outline of the steps: (§1)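 Competition binding of DNA- or phage-tagged kinase to immobilised ligand beads, with bound kinase quantified by qPCR of eluates.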

Another assay concerns the target T2, ROCK2 (Homo sapiens, UniProt O75116).
T2 construct: T7 phage fusion (kinase-tagged phage) or DNA tag for qPCR detection
Briefly: ROCK2 kinase binding affinity, DiscoverX KINOMEscan KdELECT. To be noted: for ROCK2 Selectivity: selectivity for ROCK2 over ROCK1 from Kd. An outline of the steps:
as §1

[1] abbreviates: KINOMEscan KdELECT, 11-point 3-fold dilution, read-out: Kd (μM) ROCK2.

Like-named read-outs stand apart in the source and are kept apart here. A value given as a limit tells only on which side of the number the result lay.

T1 sequence (Q13464 whole entry, the tested form may be a part): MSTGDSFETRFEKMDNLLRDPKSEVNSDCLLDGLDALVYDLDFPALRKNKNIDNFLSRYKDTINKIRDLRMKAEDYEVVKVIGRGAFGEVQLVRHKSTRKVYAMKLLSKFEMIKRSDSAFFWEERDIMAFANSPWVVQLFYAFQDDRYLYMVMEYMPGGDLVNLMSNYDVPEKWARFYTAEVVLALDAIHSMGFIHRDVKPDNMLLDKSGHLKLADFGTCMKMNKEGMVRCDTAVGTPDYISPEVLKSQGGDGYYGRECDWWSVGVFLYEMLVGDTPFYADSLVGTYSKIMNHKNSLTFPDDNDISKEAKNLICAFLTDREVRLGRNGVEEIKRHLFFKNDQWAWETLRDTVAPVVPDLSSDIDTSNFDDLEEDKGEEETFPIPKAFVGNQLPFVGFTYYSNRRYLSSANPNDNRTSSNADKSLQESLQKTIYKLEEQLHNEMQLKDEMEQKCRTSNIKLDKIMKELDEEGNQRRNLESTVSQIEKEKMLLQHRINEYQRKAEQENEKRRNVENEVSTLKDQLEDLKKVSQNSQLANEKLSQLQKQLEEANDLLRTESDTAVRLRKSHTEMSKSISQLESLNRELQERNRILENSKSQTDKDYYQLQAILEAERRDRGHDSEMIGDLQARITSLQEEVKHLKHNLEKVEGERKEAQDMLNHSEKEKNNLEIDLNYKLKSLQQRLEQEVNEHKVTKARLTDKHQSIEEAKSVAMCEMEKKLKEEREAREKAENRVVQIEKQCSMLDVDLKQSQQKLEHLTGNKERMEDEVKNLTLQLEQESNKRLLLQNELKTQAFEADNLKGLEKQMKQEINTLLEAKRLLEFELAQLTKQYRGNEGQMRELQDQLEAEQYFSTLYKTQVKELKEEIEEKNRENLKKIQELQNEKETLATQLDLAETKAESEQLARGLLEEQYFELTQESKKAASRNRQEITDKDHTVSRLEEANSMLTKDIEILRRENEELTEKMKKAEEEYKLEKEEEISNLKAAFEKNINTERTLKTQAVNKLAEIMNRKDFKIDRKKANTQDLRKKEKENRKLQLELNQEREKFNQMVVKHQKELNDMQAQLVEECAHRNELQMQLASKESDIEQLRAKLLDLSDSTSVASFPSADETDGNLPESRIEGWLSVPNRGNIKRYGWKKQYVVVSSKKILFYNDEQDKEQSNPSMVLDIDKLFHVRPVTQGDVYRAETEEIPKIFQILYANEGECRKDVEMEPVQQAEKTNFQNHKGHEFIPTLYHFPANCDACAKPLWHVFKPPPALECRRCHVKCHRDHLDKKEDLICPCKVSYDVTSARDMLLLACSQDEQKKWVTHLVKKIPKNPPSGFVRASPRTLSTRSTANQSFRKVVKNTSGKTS
T2 sequence (O75116 whole entry, the tested form may be a part): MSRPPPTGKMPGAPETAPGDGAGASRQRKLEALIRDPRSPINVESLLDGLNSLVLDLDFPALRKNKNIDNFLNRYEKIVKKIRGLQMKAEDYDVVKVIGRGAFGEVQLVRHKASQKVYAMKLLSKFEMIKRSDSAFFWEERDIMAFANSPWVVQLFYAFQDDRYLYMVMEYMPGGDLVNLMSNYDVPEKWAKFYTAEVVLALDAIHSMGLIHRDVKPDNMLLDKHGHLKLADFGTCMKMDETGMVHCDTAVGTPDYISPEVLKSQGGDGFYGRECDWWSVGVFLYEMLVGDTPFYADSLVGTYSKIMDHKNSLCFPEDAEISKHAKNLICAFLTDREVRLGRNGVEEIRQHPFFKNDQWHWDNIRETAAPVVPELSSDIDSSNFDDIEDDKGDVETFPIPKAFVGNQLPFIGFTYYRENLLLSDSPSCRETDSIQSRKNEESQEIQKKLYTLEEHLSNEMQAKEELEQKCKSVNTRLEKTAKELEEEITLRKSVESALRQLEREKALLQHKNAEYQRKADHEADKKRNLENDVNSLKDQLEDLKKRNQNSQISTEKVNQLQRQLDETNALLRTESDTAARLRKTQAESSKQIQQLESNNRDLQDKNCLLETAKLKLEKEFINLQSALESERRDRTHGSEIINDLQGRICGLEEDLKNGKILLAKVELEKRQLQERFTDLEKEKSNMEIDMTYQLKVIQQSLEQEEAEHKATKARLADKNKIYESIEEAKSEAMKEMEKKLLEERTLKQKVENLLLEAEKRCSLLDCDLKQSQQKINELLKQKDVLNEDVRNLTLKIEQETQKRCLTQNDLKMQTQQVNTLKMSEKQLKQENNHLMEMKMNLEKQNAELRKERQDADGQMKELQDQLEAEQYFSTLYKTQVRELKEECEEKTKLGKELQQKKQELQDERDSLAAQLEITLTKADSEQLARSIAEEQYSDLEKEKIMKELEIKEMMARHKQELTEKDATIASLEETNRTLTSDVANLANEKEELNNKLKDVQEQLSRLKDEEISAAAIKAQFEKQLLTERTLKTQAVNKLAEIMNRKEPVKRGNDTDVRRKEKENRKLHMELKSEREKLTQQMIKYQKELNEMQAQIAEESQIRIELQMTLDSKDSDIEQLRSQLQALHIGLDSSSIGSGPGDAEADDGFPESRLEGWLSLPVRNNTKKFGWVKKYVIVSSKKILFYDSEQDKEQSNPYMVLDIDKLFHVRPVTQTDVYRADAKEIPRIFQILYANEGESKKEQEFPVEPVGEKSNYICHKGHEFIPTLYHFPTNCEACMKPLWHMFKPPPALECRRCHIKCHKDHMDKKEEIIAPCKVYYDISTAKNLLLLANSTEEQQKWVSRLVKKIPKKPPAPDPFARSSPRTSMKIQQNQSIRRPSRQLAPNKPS

Turning to `OC[C@H]1CC[C@@H](CNc2nccc(-c3nccc(C#Cc4ccc5[nH]ncc5c4)n3)n2)O1` [Ex. 51, ((2R,5S)-5-(((4-((1H-Indazol-5-yl)ethynyl)-[2,4′-bipyrimidin]-2′-yl)amino)methyl)tetrahydrofuran-2-yl)methanol], the Kd at ROCK1 was 0.1 to 0.99 µM; on ROCK2 (setting [1]) it was < 0.01 µM. On ROCK2, the “ROCK2 Selectivity” value is reported as “*** (151 to 500-fold selectivity for ROCK2)”.

Take `CC1(C)CCC(CNc2nccc(-c3nccc(C#Cc4ccc5[nH]ncc5c4)n3)n2)O1` (stereo not drawn) [Ex. 68, 4-((1H-Indazol-5-yl)ethynyl)-N-((5,5-dimethyltetrahydrofuran-2-yl)methyl)-[2,4′-bipyrimidin]-2′-amine]: the Kd was 0.1 to 0.99 µM on ROCK1 and < 0.01 µM on ROCK2 (setting [1]). For the same compound, the “ROCK2 Selectivity” value at ROCK2 was “*** (151 to 500-fold selectivity for ROCK2)”.

On to `CN(C)CCNc1nccc(-c2nccc(C#Cc3ccc4[nH]ncc4c3)n2)n1` [Ex. 54, N1-(4-((1H-Indazol-5-yl)ethynyl)-[2,4′-bipyrimidin]-2′-yl)-N2,N2-dimethylethane-1,2-diamine], for which the results for the Kd on ROCK1 and on ROCK2 (setting [1]) were 1 to 9.9 µM and 0.1 to 0.99 µM, respectively. On ROCK2, the “ROCK2 Selectivity” value was “* (<50-fold selectivity for ROCK2)”.

Take `CC(Nc1nccc(-c2nccc(C#Cc3ccc4[nH]ncc4c3)n2)n1)C1CCCO1` (stereo not drawn) [Ex. 67, 4-((1H-Indazol-5-yl)ethynyl)-N-(1-(tetrahydrofuran-2-yl)ethyl)-[2,4′-bipyrimidin]-2′-amine]: the results for the Kd on ROCK1 and on ROCK2 (setting [1]) were 1 to 9.9 µM and 0.01 to 0.099 µM, respectively. The “ROCK2 Selectivity” value at ROCK2 is listed as “* (<50-fold selectivity for ROCK2)”.

For the compound `C(#Cc1ccnc(-c2ccnc(NCc3ccccc3)n2)n1)c1ccc2[nH]ncc2c1` [Ex. 14, 4-((1H-Indazol-5-yl)ethynyl)-N-benzyl-[2,4′-bipyrimidin]-2′-amine], the Kd on ROCK1 lay within 1 to 9.9 µM; on ROCK2 (setting [1]), 0.01 to 0.099 µM. Further, on ROCK2, the “ROCK2 Selectivity” value is listed as “* (<50-fold selectivity for ROCK2)”.

Consider `CC(C)(N)CNc1nccc(-c2nccc(C#Cc3ccc4[nH]ncc4c3)n2)n1` [Ex. 89, N1-(4-((1H-Indazol-5-yl)ethynyl)-[2,4′-bipyrimidin]-2′-yl)-2-methylpropane-1,2-diamine], for which the values for the Kd on ROCK1 and at ROCK2 (setting [1]) were 1 to 9.9 µM and 0.1 to 0.99 µM, respectively. Besides, the “ROCK2 Selectivity” value at ROCK2 is given as “* (<50-fold selectivity for ROCK2)”.

Regarding `O[C@H]1CC[C@H](Nc2nccc(-c3nccc(C#Cc4ccc5[nH]ncc5c4)n3)n2)CC1` [Ex. 63, (1r,4r)-4-((4-((1H-Indazol-5-yl)ethynyl)-[2,4′-bipyrimidin]-2′-yl)amino)cyclohexanol], the results for the Kd on ROCK1 and at ROCK2 (setting [1]) were 1 to 9.9 µM and < 0.01 µM, respectively. Moreover, the “ROCK2 Selectivity” value at ROCK2 is on record as “*** (151 to 500-fold selectivity for ROCK2)”.

Regarding `C(#Cc1ccnc(-c2ccnc(N[C@H]3CCOC3)n2)n1)c1ccc2[nH]ncc2c1` [Ex. 62, (S)-4-((1H-Indazol-5-yl)ethynyl)-N-(tetrahydrofuran-3-yl)-[2,4′-bipyrimidin]-2′-amine], the figures for the Kd at ROCK1 and at ROCK2 (setting [1]) were 1 to 9.9 µM and < 0.01 µM, respectively. The “ROCK2 Selectivity” value on ROCK2 is given as “*** (151 to 500-fold selectivity for ROCK2)”.

In the case of `C[C@H](O)CNc1nccc(-c2nccc(C#Cc3ccc4[nH]ncc4c3)n2)n1` [Ex. 80, (S)-1-((4-((1H-Indazol-5-yl)ethynyl)-[2,4′-bipyrimidin]-2′-yl)amino)propan-2-ol], the Kd at ROCK1 was 1 to 9.9 µM. Moreover, on ROCK2, the Kd was 0.1 to 0.99 µM and the “ROCK2 Selectivity” value is given as “** (50 to 150-fold selectivity for ROCK2)”.

As to `O=C(O)[C@H]1CC[C@H](Nc2nccc(-c3nccc(C#Cc4ccc5[nH]ncc5c4)n3)n2)CC1` [Ex. 87, (1r,4r)-4-((4-((1H-Indazol-5-yl)ethynyl)-[2,4′-bipyrimidin]-2′-yl)amino)cyclohexanecarboxylic acid], the Kd on ROCK1 lay within 1 to 9.9 µM; at ROCK2 (setting [1]) it was 0.1 to 0.99 µM. Also, the “ROCK2 Selectivity” value at ROCK2 is reported as “* (<50-fold selectivity for ROCK2)”.

As to `O[C@@H]1CC[C@H](Nc2nccc(-c3nccc(C#Cc4ccc5[nH]ncc5c4)n3)n2)C1` [Ex. 74, (1R,3S)-3-((4-((1H-indazol-5-yl)ethynyl)-[2,4′-bipyrimidin]-2′-yl)amino)cyclopentanol], the Kd on ROCK1 is 0.1 to 0.99 µM; at ROCK2 (setting [1]) it was < 0.01 µM. At ROCK2, the “ROCK2 Selectivity” value is reported as “**** (>500-fold selectivity for ROCK2)”.

For the compound `COc1ccccc1CNc1nccc(-c2nccc(C#Cc3ccc4[nH]ncc4c3)n2)n1` [Ex. 18, 4-((1H-Indazol-5-yl)ethynyl)-N-(2-methoxybenzyl)-[2,4′-bipyrimidin]-2′-amine], the Kd was 1 to 9.9 µM at ROCK1 and 0.01 to 0.099 µM on ROCK2 (setting [1]). The “ROCK2 Selectivity” value on ROCK2 is reported as “** (50 to 150-fold selectivity for ROCK2)”.

As for `Fc1cc(CNc2nccc(-c3nccc(C#Cc4ccc5[nH]ncc5c4)n3)n2)ccn1` [Ex. 33, 4-((1H-Indazol-5-yl)ethynyl)-N-((2-fluoropyridin-4-yl)methyl)-[2,4′-bipyrimidin]-2′-amine], the Kd was 1 to 9.9 µM at ROCK1 and < 0.01 µM at ROCK2 (setting [1]). Besides, the “ROCK2 Selectivity” value on ROCK2 is recorded as “*** (151 to 500-fold selectivity for ROCK2)”.

`[2H]C([2H])(Nc1nccc(-c2nccc(C#Cc3ccc4[nH]ncc4c3)n2)n1)c1ccccn1` [Ex. 66, 4-((1H-Indazol-5-yl)ethynyl)-N-(pyridin-2-ylmethyl-d2)-[2,4′-bipyrimidin]-2′-amine]: the Kd on ROCK1 is 0.1 to 0.99 µM; at ROCK2 (setting [1]) it was < 0.01 µM. Further, on ROCK2, the “ROCK2 Selectivity” value is given as “** (50 to 150-fold selectivity for ROCK2)”.

Consider `CN(C)C(=O)CNc1nccc(-c2nccc(C#Cc3ccc4[nH]nc(F)c4c3)n2)n1` [Ex. 46, 2-((4-((3-Fluoro-1H-indazol-5-yl)ethynyl)-[2,4′-bipyrimidin]-2′-yl)amino)-N,N-dimethylacetamide], for which the Kd is 1 to 9.9 µM at ROCK1 and 0.01 to 0.099 µM at ROCK2 (setting [1]). The “ROCK2 Selectivity” value at ROCK2 is “** (50 to 150-fold selectivity for ROCK2)”.

For the compound `O[C@H]1CC[C@@H](Nc2nccc(-c3nccc(C#Cc4ccc5[nH]nc(F)c5c4)n3)n2)C1` [Ex. 94, (1S,3R)-3-((4-((3-Fluoro-1H-Indazol-5-yl)ethynyl)-[2,4′-bipyrimidin]-2′-yl)amino)cyclopentanol], the Kd at ROCK1 is 1 to 9.9 µM; on ROCK2 (setting [1]), < 0.01 µM. For the same compound, on ROCK2, the “ROCK2 Selectivity” value is given as “**** (>500-fold selectivity for ROCK2)”.

For `C(#Cc1ccnc(-c2ccnc(NCC3CCCCO3)n2)n1)c1ccc2[nH]ncc2c1` (stereo not drawn) [Ex. 76, 4-((1H-Indazol-5-yl)ethynyl)-N-((tetrahydro-2H-pyran-2-yl)methyl)-[2,4′-bipyrimidin]-2′-amine], the Kd was 1 to 9.9 µM on ROCK1 and < 0.01 µM at ROCK2 (setting [1]). Also, the “ROCK2 Selectivity” value on ROCK2 is on record as “*** (151 to 500-fold selectivity for ROCK2)”.

With `Fc1ccc(CNc2nccc(-c3nccc(C#Cc4ccc5[nH]ncc5c4)n3)n2)cc1` [Ex. 8, 4-((1H-Indazol-5-yl)ethynyl)-N-(4-fluorobenzyl)-[2,4′-bipyrimidin]-2′-amine], the Kd was in the range of 1 to 9.9 µM at ROCK1 and 0.01 to 0.099 µM at ROCK2 (setting [1]). The “ROCK2 Selectivity” value at ROCK2 is reported as “*** (151 to 500-fold selectivity for ROCK2)”.

Regarding `COC(=O)[C@H]1CC[C@H](Nc2nccc(-c3nccc(C#Cc4ccc5[nH]ncc5c4)n3)n2)CC1` [Ex. 86, (1r,4r)-Methyl 4-((4-((1H-indazol-5-yl)ethynyl)-[2,4′-bipyrimidin]-2′-yl)amino)cyclohexanecarboxylate], the Kd at ROCK1 was 0.1 to 0.99 µM; on ROCK2 (setting [1]), < 0.01 µM. Also, on ROCK2, the “ROCK2 Selectivity” value was “*** (151 to 500-fold selectivity for ROCK2)”.
